pIC50: −log10 of the molar value.

In paper PMC4327855 (Science signaling, 2014) one finds IC50 data, which are given here for 1 molecule.

The experiment has as its target T1, TPC1 (Strongylocentrotus purpuratus, UniProt D1J6X7).
T1 sequence (D1J6X7 1-881): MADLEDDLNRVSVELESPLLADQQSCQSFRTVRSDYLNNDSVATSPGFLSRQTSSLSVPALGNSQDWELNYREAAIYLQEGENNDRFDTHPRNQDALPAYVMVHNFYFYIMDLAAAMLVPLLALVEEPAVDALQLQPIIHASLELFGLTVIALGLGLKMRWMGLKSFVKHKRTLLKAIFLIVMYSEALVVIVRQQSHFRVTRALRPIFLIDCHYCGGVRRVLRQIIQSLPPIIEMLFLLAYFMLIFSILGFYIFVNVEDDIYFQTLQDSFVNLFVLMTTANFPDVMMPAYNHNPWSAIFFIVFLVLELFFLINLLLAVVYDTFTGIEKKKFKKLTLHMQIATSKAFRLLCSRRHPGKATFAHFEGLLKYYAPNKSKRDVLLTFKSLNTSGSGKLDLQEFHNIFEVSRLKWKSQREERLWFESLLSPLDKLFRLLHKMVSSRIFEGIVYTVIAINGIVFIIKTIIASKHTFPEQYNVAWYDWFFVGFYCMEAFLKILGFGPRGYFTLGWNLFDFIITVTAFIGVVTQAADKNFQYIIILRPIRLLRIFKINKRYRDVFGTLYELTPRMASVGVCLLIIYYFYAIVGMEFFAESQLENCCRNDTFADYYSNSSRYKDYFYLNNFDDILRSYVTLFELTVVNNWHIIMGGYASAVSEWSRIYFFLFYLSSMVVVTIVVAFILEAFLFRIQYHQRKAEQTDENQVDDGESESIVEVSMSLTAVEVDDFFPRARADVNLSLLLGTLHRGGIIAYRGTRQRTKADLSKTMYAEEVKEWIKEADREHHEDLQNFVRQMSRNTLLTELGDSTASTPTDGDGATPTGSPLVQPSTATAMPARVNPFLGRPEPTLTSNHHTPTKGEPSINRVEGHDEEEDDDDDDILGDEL
In words: inhibition of NAADP-evoked Ca2+ signals. Format: cell-based.

As a reminder, the pIC50 is the IC50 on a negative log10 scale, so that one unit is a factor of ten. Low readings indicate a large IC50, high ones a small IC50. Turning to `COC(=O)C1=C(C)NC(C)=C(C(=O)OC)C1c1ccccc1[N+](=O)[O-]` [nifedipine], the negative logarithm of the IC50 (pIC50) is 5.40.
